In patent US8168779B2, “Anhydrous crystalline β-maltose, its preparation and uses” (priority 2006, dated 2012):

How the values were obtained:
Format in all cases: physicochemical
[1] = Powderizing test by admixing dehydrated ethanol
Protocol: The usefulness of the crystal was judged by the amount of deionized water added to the limit of keeping the powder form. The form of the powder was evaluated by the following four phases: (1) powder; (2) lump (it keeps a powder form while it comprises lumps); (3) cake; and (4) paste. As a control, the anhydrous crystalline α-maltose used in Example 2 was treated by the same procedure. The test was carried out in a room where the temperature was kept at 25° C. The results of the test and the form of each sample after admixing with 1.25 ml of deionized water are shown in Table 7 and FIG. 15, respectively. […] The results of the test and the form of each sample after admixing with 6 ml of dehydrated ethanol are shown in Table 8 and FIG. 16, respectively.

[2] = Specific surface area by nitrogen adsorption isotherms (BET); conditions: BET method, listed as anhydrous crystalline β-maltose converted by the ethanol treatment
Protocol: About 3 g of the anhydrous crystalline β-maltose, obtained in Example 1, was dried in the apparatus under a reduced pressure at about 40° C. for about 15 hours as a pretreatment, and then used for the measurement of specific surface area by the nitrogen adsorption isotherms. The result was analyzed by conventional BET (Brunnauer, Emmet, and Teller) method.

[3] = Hygroscopicity test (moisture content under controlled relative humidity); conditions: 27° C.
Protocol: Moisture contents of the samples at respective periods were measured based on the change of weight from the start of the test. The moisture contents of the samples at the start of the test were measured by Karl Fischer's method.

[4] = Powderizing test by admixing deionized water; conditions: 25° C.
Protocol: The usefulness of the crystal was judged by the amount of deionized water added to the limit of keeping the powder form. The form of the powder was evaluated by the following four phases: (1) powder; (2) lump (it keeps a powder form while it comprises lumps); (3) cake; and (4) paste. As a control, the anhydrous crystalline α-maltose used in Example 2 was treated by the same procedure. The test was carried out in a room where the temperature was kept at 25° C. The results of the test and the form of each sample after admixing with 1.25 ml of deionized water are shown in Table 7 and FIG. 15, respectively.

Structure (SMILES): OC[C@H]1O[C@H](O[C@H]2[C@H](O)[C@@H](O)[C@H](O)O[C@@H]2CO)[C@H](O)[C@@H](O)[C@@H]1O [anhydrous crystalline β-maltose]
- Form of the powder after admixing dehydrated ethanol ([1]; 10 g crystal + 3.0 ml ethanol (24.3 v/w %)): Powder form
- Form of the powder after admixing dehydrated ethanol ([1]; 10 g crystal + 3.5 ml ethanol (27.5 v/w %)): Powder form
- Form of the powder after admixing dehydrated ethanol ([1]; 10 g crystal + 4.0 ml ethanol (30.5 v/w %)): Powder form
- Form of the powder after admixing dehydrated ethanol ([1]; 10 g crystal + 4.5 ml ethanol (33.3 v/w %)): Powder form
- Form of the powder after admixing dehydrated ethanol ([1]; 10 g crystal + 5.0 ml ethanol (36.0 v/w %)): Powder form
- Form of the powder after admixing dehydrated ethanol ([1]; 10 g crystal + 5.5 ml ethanol (38.5 v/w %)): Powder form
- Form of the powder after admixing dehydrated ethanol ([1]; 10 g crystal + 6.0 ml ethanol (40.9 v/w %)): Powder form
- Form of the powder after admixing dehydrated ethanol ([1]; 10 g crystal + 7.0 ml ethanol (45.3 v/w %)): Powder form
- Form of the powder after admixing dehydrated ethanol ([1]; 10 g crystal + 8.0 ml ethanol (49.3 v/w %)): Powder form
- Form of the powder after admixing dehydrated ethanol ([1]; 10 g crystal + 9.0 ml ethanol (52.9 v/w %)): Lump form
- Form of the powder after admixing dehydrated ethanol ([1]; 10 g crystal + 10.0 ml ethanol (56.2 v/w %)): Lump form
- Form of the powder after admixing dehydrated ethanol ([1]; 10 g crystal + 11.0 ml ethanol (59.2 v/w %)): Cake form
- Specific surface area [2]: 3.39 m^2/g
- Moisture content of samples ([3]; RH 47% (lithium nitrate), 0 hour (start, Karl Fischer), listed as AC* β-Mal (Present invention)): 0.32 %, w/w
- Moisture content of samples ([3]; RH 47% (lithium nitrate), 2 hours, listed as AC* β-Mal (Present invention)): 0.30 %, w/w
- Moisture content of samples ([3]; RH 47% (lithium nitrate), 4 hours, listed as AC* β-Mal (Present invention)): 0.28 %, w/w
- Moisture content of samples ([3]; RH 47% (lithium nitrate), 24 hours, listed as AC* β-Mal (Present invention)): 0.27 %, w/w
- Moisture content of samples ([3]; RH 47% (lithium nitrate), 96 hours, listed as AC* β-Mal (Present invention)): 0.34 %, w/w
- Moisture content of samples ([3]; RH 47% (lithium nitrate), 192 hours, listed as AC* β-Mal (Present invention)): 0.28 %, w/w
- Moisture content of samples ([3]; RH 58% (sodium bromide), 0 hour (start, Karl Fischer), listed as AC β-Mal (Present invention)): 0.32 %, w/w
- Moisture content of samples ([3]; RH 58% (sodium bromide), 2 hours, listed as AC β-Mal (Present invention)): 0.32 %, w/w
- Moisture content of samples ([3]; RH 58% (sodium bromide), 4 hours, listed as AC β-Mal (Present invention)): 0.33 %, w/w
- Moisture content of samples ([3]; RH 58% (sodium bromide), 6 hours, listed as AC β-Mal (Present invention)): 0.36 %, w/w
- Moisture content of samples ([3]; RH 58% (sodium bromide), 8 hours, listed as AC β-Mal (Present invention)): 0.35 %, w/w
- Moisture content of samples ([3]; RH 58% (sodium bromide), 24 hours, listed as AC β-Mal (Present invention)): 0.35 %, w/w
- Moisture content of samples ([3]; RH 58% (sodium bromide), 96 hours, listed as AC β-Mal (Present invention)): 1.47 %, w/w
- Moisture content of samples ([3]; RH 58% (sodium bromide), 192 hours, listed as AC β-Mal (Present invention)): 4.16 %, w/w
- Moisture content of samples ([3]; RH 75% (sodium chloride), 0 hour (start, Karl Fischer), listed as AC β-Mal (Present invention)): 0.32 %, w/w
- Moisture content of samples ([3]; RH 75% (sodium chloride), 2 hours, listed as AC β-Mal (Present invention)): 0.66 %, w/w
- Moisture content of samples ([3]; RH 75% (sodium chloride), 4 hours, listed as AC β-Mal (Present invention)): 2.37 %, w/w
- Moisture content of samples ([3]; RH 75% (sodium chloride), 6 hours, listed as AC β-Mal (Present invention)): 3.93 %, w/w
- Moisture content of samples ([3]; RH 75% (sodium chloride), 8 hours, listed as AC β-Mal (Present invention)): 4.51 %, w/w
- Moisture content of samples ([3]; RH 75% (sodium chloride), 24 hours, listed as AC β-Mal (Present invention)): 4.54 %, w/w
- Moisture content of samples ([3]; RH 75% (sodium chloride), 96 hours, listed as AC β-Mal (Present invention)): 4.57 %, w/w
- Moisture content of samples ([3]; RH 75% (sodium chloride), 192 hours, listed as AC β-Mal (Present invention)): 5.19 %, w/w
- Moisture content of samples ([3]; RH 90% (barium chloride), 0 hour (start, Karl Fischer), listed as AC β-Mal (Present invention)): 0.32 %, w/w
- Moisture content of samples ([3]; RH 90% (barium chloride), 2 hours, listed as AC β-Mal (Present invention)): 1.72 %, w/w
- Moisture content of samples ([3]; RH 90% (barium chloride), 4 hours, listed as AC β-Mal (Present invention)): 4.53 %, w/w
- Moisture content of samples ([3]; RH 90% (barium chloride), 6 hours, listed as AC β-Mal (Present invention)): 4.79 %, w/w
- Moisture content of samples ([3]; RH 90% (barium chloride), 8 hours, listed as AC β-Mal (Present invention)): 4.58 %, w/w
- Moisture content of samples ([3]; RH 90% (barium chloride), 24 hours, listed as AC β-Mal (Present invention)): 4.66 %, w/w
- Moisture content of samples ([3]; RH 90% (barium chloride), 96 hours, listed as AC β-Mal (Present invention)): 4.82 %, w/w
- Moisture content of samples ([3]; RH 90% (barium chloride), 192 hours, listed as AC β-Mal (Present invention)): 5.38 %, w/w
- Form of the powder after admixing deionized water ([4]; 10 g crystal + 0.25 ml water (moisture content 2.4%, w/w)): Powder form
- Form of the powder after admixing deionized water ([4]; 10 g crystal + 0.50 ml water (moisture content 4.8%, w/w)): Powder form
- Form of the powder after admixing deionized water ([4]; 10 g crystal + 0.75 ml water (moisture content 7.0%, w/w)): Powder form
- Form of the powder after admixing deionized water ([4]; 10 g crystal + 1.00 ml water (moisture content 9.1%, w/w)): Powder form
- Form of the powder after admixing deionized water ([4]; 10 g crystal + 1.25 ml water (moisture content 11.1%, w/w)): Powder form
- Form of the powder after admixing deionized water ([4]; 10 g crystal + 1.50 ml water (moisture content 13.0%, w/w)): Lump form
- Form of the powder after admixing deionized water ([4]; 10 g crystal + 1.75 ml water (moisture content 14.9%, w/w)): Lump form
- Form of the powder after admixing deionized water ([4]; 10 g crystal + 2.00 ml water (moisture content 16.7%, w/w)): Lump form
